Data on 23 compounds can be found in PubChem BioAssay AID296 (DTP/NCI, 2004).

Where “and” joins values, the source holds several entries; their conditions need not be identical. Equal values may be shown once. Results filed as inconclusive are left out.

The subject of this assay is MX-1 breast xenograft, nude mice, tumor weight T/C. Kind of assay: NCI In Vivo Anticancer Drug Screen. Data for tumor model Human Mammary Carcinoma MX-1 Xenograft (intrarenal inoculation) in NU/NU Swiss (nude) mice. As to conditions: endpoint: mean tumor weight change, higher = larger tumour. The gist of the method:
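Antitumour effect measured in vivo against vehicle controls, expressed as T/C.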

Setting [1] is: dose: 600.0 mg/kg/injection, schedule: Q04DX003 (sc), vehicle: Klucel (hydroxypropylcellulose) (HPC).
Where [2] appears, read: dose: 2400.0 mg/kg/injection, schedule: Q04DX003 (sc), vehicle: Klucel (hydroxypropylcellulose) (HPC).
Where [3] appears, read: dose: 12.5 mg/kg/injection, schedule: Q01DX010 (sc), vehicle: saline with Tween-80.
The mark [4] stands for this setting: dose: 50.0 mg/kg/injection, schedule: Q04DX003 (sc), vehicle: saline with Tween-80.
Setting [5] is: dose: 75.0 mg/kg/injection, schedule: Q04DX003 (sc), vehicle: saline with Tween-80.
The mark [6] stands for this setting: dose: 100.0 mg/kg/injection, schedule: Q04DX003 (sc), vehicle: saline with Tween-80.
The mark [7] stands for this setting: dose: 150.0 mg/kg/injection, schedule: Q04DX003 (sc), vehicle: saline with Tween-80.
Setting [8] is: dose: 600.0 mg/kg/injection, schedule: Q04DX003 (sc), vehicle: saline with Tween-80.
The mark [9] stands for this setting: dose: 200.0 mg/kg/injection, schedule: Q04DX003 (sc), vehicle: saline with Tween-80.
Where [10] appears, read: dose: 400.0 mg/kg/injection, schedule: Q04DX003 (sc), vehicle: saline with Tween-80.
The mark [11] stands for this setting: dose: 25.0 mg/kg/injection, schedule: Q01DX010 (sc), vehicle: saline.
The mark [12] stands for this setting: dose: 50.0 mg/kg/injection, schedule: Q01DX010 (sc), vehicle: saline.
Where [13] appears, read: dose: 100.0 mg/kg/injection, schedule: Q01DX010 (sc), vehicle: saline.
The mark [14] stands for this setting: dose: 300.0 mg/kg/injection, schedule: Q04DX003 (sc), vehicle: saline with Tween-80.

Consider `Oc1c(Cl)cc(C(c2cc(Cl)c(O)c(Cl)c2)C(c2cc(Cl)c(O)c(Cl)c2)c2cc(Cl)c(O)c(Cl)c2)cc1Cl`, for which the T/C was 108 % of control (dose: 300.0 mg/kg/injection, schedule: Q04DX003 (sc), vehicle: Klucel (hydroxypropylcellulose) (HPC)); 79 % of control under setting [1]; 73 % of control (dose: 1200.0 mg/kg/injection, schedule: Q04DX003 (sc), vehicle: Klucel (hydroxypropylcellulose) (HPC)); 88 % of control under setting [2].
`CCC1CC2CN(CCc3c([nH]c4ccccc34)C(C(=O)OC)(c3cc4c(cc3OC)N(C)C3C(O)(C(=O)OC)C(OC(C)=O)C5(CC)C=CCN6CCC43C65)C2)C1` (stereo not drawn): the T/C (dose: 4.0 mg/kg/injection, schedule: Q04DX003 (sc), vehicle: saline) was 36 % of control; the T/C (dose: 8.0 mg/kg/injection, schedule: Q04DX003 (sc), vehicle: saline) was 4 % of control; the T/C (dose: 8.0 mg/kg/injection, schedule: Q04DX003 (sc), vehicle: water) is 25 % of control; the T/C (dose: 16.0 mg/kg/injection, schedule: Q04DX003 (sc), vehicle: saline) is -86 % of control.
In the case of `N=C(N)CCCCCCCCC(=N)N`, the T/C (dose: 18.75 mg/kg/injection, schedule: Q04DX003 (sc), vehicle: saline) was 124 % of control.
Take `Cc1cc(N(CC(C)Br)CC(C)Br)ccc1N=Nc1ccccc1C(=O)O` (stereo not drawn): the T/C by setting is: (dose: 3.13 mg/kg/injection, schedule: Q01DX010 (sc), vehicle: saline with Tween-80) 10 % of control and 12 % of control; (dose: 6.25 mg/kg/injection, schedule: Q01DX010 (sc), vehicle: saline with Tween-80) -46 % of control; under setting [3], -79 % of control.
Regarding `CC1c2ccccc2CC(CCN(C)C)c2ccccc21` (stereo not drawn), the T/C reads like this: (dose: 9.37 mg/kg/injection, schedule: Q04DX003 (sc), vehicle: saline with Tween-80) 101 % of control; (dose: 12.5 mg/kg/injection, schedule: Q04DX003 (sc), vehicle: saline with Tween-80) 63 % of control; (dose: 18.75 mg/kg/injection, schedule: Q04DX003 (sc), vehicle: saline with Tween-80) 83 % of control; (dose: 25.0 mg/kg/injection, schedule: Q04DX003 (sc), vehicle: saline with Tween-80) 54 % of control; (dose: 37.5 mg/kg/injection, schedule: Q04DX003 (sc), vehicle: saline with Tween-80) 52 % of control; under setting [4], 65 % of control. Further, the T/C was 26 % of control under setting [5], 38 % of control under setting [6], -3 % of control under setting [7] and -19 % of control under setting [8].
Turning to `C1OCN2CSCC12` (stereo not drawn), the T/C is 94 % of control under setting [6], 158 % of control under setting [9] and 80 % of control under setting [10].
For `O=Cc1ccc(C=O)c(Cl)c1`, the T/C was 77 % of control under setting [1] and 120 % of control under setting [2].
`CC1(C)OC(=O)N(CO)C1=O`: the T/C reads like this: under setting [11], 45 % of control; under setting [12], 31 % of control; under setting [13], 48 % of control; (dose: 200.0 mg/kg/injection, schedule: Q01DX010 (sc), vehicle: saline) 114 % of control.
`CCc1ccccc1N1CCN(C(=O)c2cc(OC)c(OC)c(OC)c2)CC1`: the T/C was 88 % of control (dose: 100.0 mg/kg/injection, schedule: Q04DX003 (sc), vehicle: Klucel (hydroxypropylcellulose) (HPC)); 86 % of control (dose: 200.0 mg/kg/injection, schedule: Q04DX003 (sc), vehicle: Klucel (hydroxypropylcellulose) (HPC)); 50 % of control (dose: 400.0 mg/kg/injection, schedule: Q04DX003 (sc), vehicle: Klucel (hydroxypropylcellulose) (HPC)).
Take `O=c1[nH]cc(F)c(=O)[nH]1`: the T/C is 67 % of control and 90 % of control (dose: 10.0 mg/kg/injection, schedule: Q01DX010 (sc), vehicle: saline); 44 % of control and 54 % of control and 55 % of control (dose: 50.0 mg/kg/injection, schedule: Q04DX003 (sc), vehicle: saline); 13 % of control (dose: 100.0 mg/kg/injection, schedule: Q04DX003 (sc), vehicle: saline).
Regarding `Cc1cc(NCCCCCCCNc2cc(C)nc3cc(N)ccc23)c2ccc(N)cc2n1`, the T/C under setting [3] was 53 % of control and 56 % of control and 72 % of control.
With `COc1ccc2cc1Oc1ccc(cc1)C[C@H]1c3cc(c(OC)cc3CCN1C)Oc1c(OC)c(OC)cc3c1[C@H](C2)N(C)CC3`, the T/C by setting is: (dose: 100.0 mg/kg/injection, schedule: Q01DX010 (sc), vehicle: saline with Tween-80) 115 % of control; (dose: 200.0 mg/kg/injection, schedule: Q01DX010 (sc), vehicle: saline with Tween-80) 42 % of control; (dose: 400.0 mg/kg/injection, schedule: Q01DX010 (sc), vehicle: saline with Tween-80) 83 % of control; (dose: 800.0 mg/kg/injection, schedule: Q01DX010 (sc), vehicle: saline with Tween-80) 44 % of control.
As to `c1cc[c]([Sn]([NH]c2ncnc3[nH]cnc23)([NH]c2ncnc3[nH]cnc23)[c]2ccccc2)cc1`, the T/C reads like this: (dose: 75.0 mg/kg/injection, schedule: Q04DX003 (sc), vehicle: suspension in saline) 76 % of control; (dose: 150.0 mg/kg/injection, schedule: Q04DX003 (sc), vehicle: suspension in saline) 109 % of control; (dose: 300.0 mg/kg/injection, schedule: Q04DX003 (sc), vehicle: suspension in saline) 111 % of control; (dose: 600.0 mg/kg/injection, schedule: Q04DX003 (sc), vehicle: suspension in saline) 76 % of control.
In the case of `COc1cc(C)c2c(c1C=O)Oc1c(c(C)c(O)c3c1C(O)OC3=O)OC2=O` (stereo not drawn), the T/C (dose: 6.25 mg/kg/injection, schedule: Q01DX010 (sc), vehicle: saline) is 90 % of control; the T/C (dose: 12.5 mg/kg/injection, schedule: Q01DX010 (sc), vehicle: saline) is 62 % of control and 78 % of control; the T/C under setting [11] is 96 % of control and 118 % of control; the T/C under setting [12] was 67 % of control and 88 % of control; the T/C under setting [13] was 98 % of control.
Take `BrC1c2cccc3cccc(c23)C1Br` (stereo not drawn): the T/C by setting is: under setting [8], 202 % of control; (dose: 2400.0 mg/kg/injection, schedule: Q04DX003 (sc), vehicle: saline with Tween-80) 113 % of control.
Regarding `CC(=O)Oc1ccc[nH]c1=O`, the T/C is, setting by setting: under setting [9], 111 % of control; under setting [10], 100 % of control; (dose: 800.0 mg/kg/injection, schedule: Q04DX003 (sc), vehicle: saline with Tween-80) 114 % of control.
For the compound `CC(C)(C)N1CC1CNC(=O)C(=O)NCC1CN1C(C)(C)C` (stereo not drawn), the T/C under setting [4] is -41 % of control and -29 % of control.
Turning to `O=C(O)C1CC1.[Ag]`, the T/C runs as follows: under setting [5], 120 % of control; under setting [7], 80 % of control; under setting [14], 98 % of control.
Regarding `O=C(O)CC(=O)O.[NH-]C1CCCCC1[NH-].[Pt+2]` (stereo not drawn), the T/C is 1 % of control and -16 % of control (dose: 20.0 mg/kg/injection, schedule: Q01DX010 (sc), vehicle: dextrose); -81 % of control and -78 % of control (dose: 40.0 mg/kg/injection, schedule: Q01DX010 (sc), vehicle: dextrose).
`O=Cc1c(O)c2ccccc2[nH]c1=O`: the T/C runs as follows: under setting [7], 118 % of control; under setting [14], 99 % of control; under setting [8], 86 % of control.
In the case of `Nc1ccc2ccc(NS(=O)(=O)N3CCCCC3)cc2c1`, the T/C is, setting by setting: (dose: 150.0 mg/kg/injection, schedule: Q04DX003 (ip), vehicle: saline with Tween-80) 110 % of control; (dose: 300.0 mg/kg/injection, schedule: Q04DX003 (ip), vehicle: saline with Tween-80) 72 % of control; (dose: 600.0 mg/kg/injection, schedule: Q04DX003 (ip), vehicle: saline with Tween-80) 86 % of control; (dose: 1200.0 mg/kg/injection, schedule: Q04DX003 (ip), vehicle: saline with Tween-80) 92 % of control.
`O=C(O)C1CC(c2ccccc2)=NN1c1ccccc1` (stereo not drawn): the T/C is 72 % of control (dose: 200.0 mg/kg/injection, schedule: Q04DX003 (sc), vehicle: water) and 72 % of control (dose: 400.0 mg/kg/injection, schedule: Q04DX003 (sc), vehicle: water).
With `C/C=C/C=C/c1cc2cc3c(c(O)c2c(=O)[nH]1)C1(CC3)C(O)=c2c(=O)c3c(=O)cc(OC)c(=O)c=3c(=O)c2=C1O` (stereo not drawn), the T/C is 122 % of control (dose: 8.0 mg/kg/injection, schedule: Q01DX010 (sc), vehicle: DMSO) and 91 % of control (dose: 16.0 mg/kg/injection, schedule: Q01DX010 (sc), vehicle: DMSO).
